Assay [1] deals with T1, recombinant human androgen receptor (hAR) (Homo sapiens, UniProt P10275).
T1 construct: made in house; host or cells: baculovirus/Sf9 insect cells (crude extract)
T1 sequence (P10275 1-920): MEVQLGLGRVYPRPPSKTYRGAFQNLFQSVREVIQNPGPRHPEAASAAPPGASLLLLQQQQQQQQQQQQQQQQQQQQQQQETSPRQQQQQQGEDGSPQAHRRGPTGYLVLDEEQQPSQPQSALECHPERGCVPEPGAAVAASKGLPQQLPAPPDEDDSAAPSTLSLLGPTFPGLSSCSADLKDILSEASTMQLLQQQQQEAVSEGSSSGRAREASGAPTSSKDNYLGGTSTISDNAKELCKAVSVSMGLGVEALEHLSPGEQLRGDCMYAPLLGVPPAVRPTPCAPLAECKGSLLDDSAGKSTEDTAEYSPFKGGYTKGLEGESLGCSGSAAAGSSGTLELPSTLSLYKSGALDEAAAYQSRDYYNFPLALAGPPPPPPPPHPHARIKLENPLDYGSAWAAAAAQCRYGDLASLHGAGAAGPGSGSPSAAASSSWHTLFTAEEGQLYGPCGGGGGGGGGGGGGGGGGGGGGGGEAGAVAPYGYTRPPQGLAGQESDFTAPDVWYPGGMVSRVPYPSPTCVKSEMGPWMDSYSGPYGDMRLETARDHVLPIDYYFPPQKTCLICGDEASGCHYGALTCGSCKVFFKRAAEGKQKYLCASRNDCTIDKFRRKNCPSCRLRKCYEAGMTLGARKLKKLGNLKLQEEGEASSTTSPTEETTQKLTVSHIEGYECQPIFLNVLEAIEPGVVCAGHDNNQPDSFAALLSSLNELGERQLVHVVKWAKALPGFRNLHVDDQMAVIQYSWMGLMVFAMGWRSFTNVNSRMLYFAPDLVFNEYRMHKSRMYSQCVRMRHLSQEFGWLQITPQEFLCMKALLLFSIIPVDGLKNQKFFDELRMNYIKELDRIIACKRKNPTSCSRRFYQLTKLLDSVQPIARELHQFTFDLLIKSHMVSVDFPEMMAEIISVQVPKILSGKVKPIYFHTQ
In words: Human androgen receptor binding analysis (3H-DHT competitive binding). As for the experimental part:
The following is a brief description of the assay that determines the affinity of a compound for the recombinant human androgen receptor (hAR). Competitive binding analysis is performed on baculovirus/Sf9 generated hAR extracts in the presence or absence of differing concentrations of drug and a fixed concentration of ^3H-dihydrotestosterone (^3H-DHT) as tracer. This binding assay method is a modification of a protocol previously described (Chang, et. al. J. Steroid Biochem. 20(1):11-17 1984). Briefly, progressively decreasing concentrations of compounds are incubated in the presence of hAR extract (Chang et al. P.N.A.S. Vol. 89, pp. 5546-5950, 1992), hydroxylapatite and 1 nM ^3H-DHT for one hour at 4° C. Subsequently, the binding reactions are washed three times to completely remove excess unbound ^3H-DHT. hAR bound ^3H-DHT levels are determined in the presence of compounds (=competitive binding) and compared to levels bound when no competitor is present (=maximum binding). Compound binding affinity to the hAR is expressed as the concentration of compound at which one half of the maximum binding is inhibited (the IC50).

The test system of assay [2] is orchiectomized (ORX) immature male rat. In words: Orchiectomized immature rat assay (levator ani and ventral prostate weights). The following applies: 4 days, TP 10 mg/kg = 100%, ORX control = 0%; for % TP Control LA: levator ani weight; for % TP Control VP: ventral prostate weight. The assay is classed as in vivo, Sprague Dawley rat. As for the experimental part: All animal studies were performed in accordance with the Guide for Care and Use of Laboratory Animals (National Research Council, 1996). Twenty-one day old male Sprague Dawley rats were acquired from Taconic, Inc, Germantown, N.Y. Rats were housed five per cage at standard vivarium conditions ([…], 12-h light/dark cycle), with normal chow diet and tap water ad libitum. At 25 days of age, the rats underwent bilateral orchiectomy surgery (ORX) after sedation with 3-5% Isoflurane. Following the surgery, the animals were treated immediately by daily subcutaneous (s.c.) injection with vehicle (sesame oil), testosterone propionate (TP, 10 mg/kg) and test compounds. The dosage of test compound administered is in mg/kg. At the end of the 4 days of administrations, the animals were sacrificed in a carbon dioxide chamber, the ventral prostate (VP) and levator ani muscle complex (LA) were removed and weighed. The increase in the weights of VP or LA by TP was expressed as 100%, and the ORX control as baseline, 0%; the response of the test compounds was calculated as the percentage increase compared to TP.

Structures are written as SMILES.

The IC50 is the point on the concentration scale where inhibition reaches its midpoint. Take `CC[C@@H](C)N(C)c1ccc(C#N)c(C(F)(F)F)c1` [Example 7, 4-((R)-sec-Butyl-methyl-amino)-2-trifluoromethyl-benzonitrile]: in assay [1], the concentration for half-maximal inhibition (IC50) is 1.09 nM. Also, the results for the “% TP Control LA” value in assay [2] (3 mg/kg s.c.), in assay [2] (10 mg/kg s.c.) and in assay [2] (30 mg/kg s.c.) were 40%, 65% and 89%, respectively. Further, the “% TP Control VP” value turned out to be 23% in assay [2] (3 mg/kg s.c.), 24% in assay [2] (10 mg/kg s.c.) and 39% in assay [2] (30 mg/kg s.c.).
Consider `CCN(c1ccc(C#N)c(Cl)c1)C(C)C` [Example 48, 2-Chloro-4-(ethyl-isopropyl-amino)-benzonitrile], for which, in assay [1], the IC50 came out at 19.7 nM.
With `CCCN(CCC)c1ccc(C#N)c(Cl)c1` [Example 49, 2-Chloro-4-(dipropyl-amino)-benzonitrile], the half-inhibitory concentration (IC50) in assay [1] turned out to be 8.33 nM.
On the same count and under the same terms, with `CC(C)N(C)c1ccc(C#N)c(C#N)c1` [Example 50, 4-(Isopropyl-methyl-amino)-phthalonitrile] the figure was 8.23 nM; with `COC[C@H]1CCCN1c1ccc(C#N)c(C#N)c1` [Example 51, 4-(2-(R)-Methoxymethyl-pyrrolidin-1-yl)-phthalonitrile], 12.4 nM; with `N#Cc1ccc(N2CCCCCC2)cc1C#N` [Example 52, 4-Azepan-1-yl-phthalonitrile], 5.04 nM.
As to `CCCN(CCC)c1cc(F)c(C#N)c(F)c1` [Example 53, 2,6-Difluoro-4-(dipropyl-amino)-benzonitrile], in assay [1], the concentration for half-maximal inhibition (IC50) turned out to be 4.06 nM.

The values are drawn from US20080045504A1, “Benzonitrile Derivatives to Treat Musculoskeletal Frailty” (PFIZER PRODUCTS INC., priority 2004, published 2008).
